Measured values from patent publication US8349880B2, “Bicyclic compounds for the reduction of beta-amyloid production” (Bristol-Myers Squibb Company, priority 2009, dated 2013).

System: Aβ1-42 production
Experiment: Cellular assay for inhibition of Aβ1-42 production (H4 APP751 SWE clone 8.20)
Type: cell-based
Details: 19 h, H4 APP751 SWE clone 8.20 cells, 19 h incubation; read-out: Activity Rating (Aβ42 cellular IC50, given as a number)
Outline: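 H4 cells stably expressing APP751 with the Swedish mutation (1.5×10^4 cells/well) incubated with compound for 19 h at 37° C in DMEM with 0.0125% BSA. Secreted Aβ42 measured overnight at 4° C by HTRF-type pairing of 565 (Aβ42 neoepitope) and 26D6 (N-terminal) antibodies. IC50 from curve fit.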

IC50	Compound
44 nM	COc1cc(Nc2nc3n(n2)CCCCC3c2ccc(OC(F)(F)F)cc2)cc(F)c1-n1cnc(C)n1 (stereo not drawn) [Example 167, N-(3-fluoro-5-methoxy-4-(3-methyl-1H-1,2,4-triazol-1-yl)phenyl)-9-(4-(trifluoromethoxy)phenyl)-6,7,8,9-tetrahydro-5H-[1,2,4]triazolo[1,5-a]azepin-2-amine]
64 nM	COc1cc(Nc2nc3n(n2)CCCCC3c2ccc(-n3cncn3)cc2)ccc1-n1cnc(Cl)c1 (stereo not drawn) [Example 172, 9-(4-(1H-1,2,4-triazol-1-yl)phenyl)-N-(4-(4-chloro-1H-imidazol-1-yl)-3-methoxyphenyl)-6,7,8,9-tetrahydro-5H-[1,2,4]triazolo[1,5-a]azepin-2-amine 2,2,2-trifluoroacetate]

Same assay, conditions: 19 h, H4 APP751 SWE clone 8.20 cells, 19 h incubation; read-out: Activity Rating (based on Aβ42 cellular IC50 values)

IC50	Compound
10 to 100 nM	COc1cc(Nc2nc3n(n2)CCCCC3c2ccc(OCC(F)F)cc2)ccc1-n1cnc(Cl)c1 (stereo not drawn) [Example 161, N-(4-(4-chloro-1H-imidazol-1-yl)-3-methoxyphenyl)-9-(4-(2,2-difluoroethoxy)phenyl)-6,7,8,9-tetrahydro-5H-[1,2,4]triazolo[1,5-a]azepin-2-amine]
< 10 nM	Cc1ncn(-c2ccc(Nc3nc4n(n3)CCCCC4c3ccc(OC(F)(F)F)c(F)c3)cc2F)n1 (stereo not drawn) [Example 164, N-(3-fluoro-4-(3-methyl-1H-1,2,4-triazol-1-yl)phenyl)-9-(3-fluoro-4-(trifluoromethoxy)phenyl)-6,7,8,9-tetrahydro-5H-[1,2,4]triazolo[1,5-a]azepin-2-amine]
< 10 nM	COc1cc(Nc2nc3n(n2)CCCCC3c2ccc(Br)cc2)ccc1-n1cnc(Cl)c1 (stereo not drawn) [Example 170, 9-(4-bromophenyl)-N-(4-(4-chloro-1H-imidazol-1-yl)-3-methoxyphenyl)-6,7,8,9-tetrahydro-5H-[1,2,4]triazolo[1,5-a]azepin-2-amine]
10 to 100 nM	COc1cc(Nc2nc3n(n2)CCCCC3c2ccc(-n3cccn3)cc2)ccc1-n1cnc(Cl)c1 (stereo not drawn) [Example 171, 9-(4-(1H-pyrazol-1-yl)phenyl)-N-(4-(4-chloro-1H-imidazol-1-yl)-3-methoxyphenyl)-6,7,8,9-tetrahydro-5H-[1,2,4]triazolo[1,5-a]azepin-2-amine 2,2,2-trifluoroacetate]
100 to 1000 nM	COc1cc(Nc2nc3n(n2)CCCCC3c2ccc(-n3ccnc3)cc2)ccc1-n1cnc(Cl)c1 (stereo not drawn) [Example 173, 9-(4-(1H-imidazol-1-yl)phenyl)-N-(4-(4-chloro-1H-imidazol-1-yl)-3-methoxyphenyl)-6,7,8,9-tetrahydro-5H-[1,2,4]triazolo[1,5-a]azepin-2-amine 2,2,2-trifluoroacetate]
< 10 nM	COc1cc(Nc2nc3n(n2)CCCCC3c2ccc(-n3cc(C)cn3)cc2)ccc1-n1cnc(Cl)c1 (stereo not drawn) [Example 174, N-(4-(4-chloro-1H-imidazol-1-yl)-3-methoxyphenyl)-9-(4-(4-methyl-1H-pyrazol-1-yl)phenyl)-6,7,8,9-tetrahydro-5H-[1,2,4]triazolo[1,5-a]azepin-2-amine 2,2,2-trifluoroacetate]
10 to 100 nM	COc1cc(Nc2nc3n(n2)CCCCC3c2ccc(OC(F)(F)F)cc2)c(F)cc1-n1cnc(C)n1 (stereo not drawn) [Example 175, N-(2-fluoro-5-methoxy-4-(3-methyl-1H-1,2,4-triazol-1-yl)phenyl)-9-(4-(trifluoromethoxy)phenyl)-6,7,8,9-tetrahydro-5H-[1,2,4]triazolo[1,5-a]azepin-2-amine]

Same assay, conditions: H4 APP751 SWE clone 8.20 cells, 19 h incubation; read-out: Activity Rating (based on Aβ42 cellular IC50 values)

IC50	Compound
10 to 100 nM	(R)—N-(3-fluoro-4-(5-methyl-1H-1,2,4-triazol-1-yl)phenyl)-9-(4-fluorophenyl)-6,7,8,9-tetrahydro-5H-[1,2,4]triazolo azepin-2-amine [Example 95]
10 to 100 nM	(S)—N-(2-fluoro-5-methoxy-4-(3-methyl-1H-1,2,4-triazol-1-yl)phenyl)-9-(4-(2,2,2-trifluoroethoxy)phenyl)-6,7,8,9-tetrahydro-5H-[1,2,4]triazolo azepin-2-amine [Example 117]
< 10 nM	S)—N-(4-(4-chloro-1H-imidazol-1-yl)-3-methoxyphenyl)-9-(3,4-difluorophenyl)-6,7,8,9-tetrahydro-5H-[1,2,4]triazolo[1,5-a]azepin-2-amine [Example 23]
